The test system of data set [1] is Mus musculus. Nature of the data set: Residual inhibition of morphine-induced analgesia in mouse at 2.4 nmol, icv measured after 2 hrs by tail-flick assay. The data set is classed as functional, organism-based.
Data set [2] concerns the target Opioid receptors; mu/kappa/delta (Homo sapiens) (UniProt P41145+P41143+P35372). The note with it: Brain, 1 uM.
Description: Displacement of [3H]naloxone from opioid receptor (unknown origin) in brain homogenate at 1 uM to 10 nM
The subject of data set [3] is Mus musculus. Nature of the data set: Toxicity in mouse at 4.8 nmol, icv measured within 1.5 hrs post-drug administration. It is filed as organism-based. As to conditions: in vivo, icv_or_intrathecal.
Data set [4] is described as follows: Toxicity in mouse assessed as animal death at 2.4 nmol, icv. As to conditions: in vivo, icv or intrathecal, read-out: Activity. It is filed as organism-based.

Structures are written as SMILES. Active and inactive are the calls of the source. The rule behind the calls is not given here.

Sequence of Opioid receptors; mu/kappa/delta (Homo sapiens) (P35372 whole entry, looked up): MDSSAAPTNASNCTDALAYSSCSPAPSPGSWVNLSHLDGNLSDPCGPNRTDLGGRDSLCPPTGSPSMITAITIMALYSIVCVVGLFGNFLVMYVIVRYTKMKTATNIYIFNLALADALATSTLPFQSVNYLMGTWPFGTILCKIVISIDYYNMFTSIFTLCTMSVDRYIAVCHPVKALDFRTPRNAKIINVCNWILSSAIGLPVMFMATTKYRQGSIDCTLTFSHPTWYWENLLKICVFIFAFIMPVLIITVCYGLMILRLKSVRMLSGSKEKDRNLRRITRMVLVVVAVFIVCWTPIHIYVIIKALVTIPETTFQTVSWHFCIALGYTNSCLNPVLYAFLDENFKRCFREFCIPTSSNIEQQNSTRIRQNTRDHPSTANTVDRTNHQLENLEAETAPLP
Sequence of Opioid receptors; mu/kappa/delta (Homo sapiens) (P41143 whole entry, looked up): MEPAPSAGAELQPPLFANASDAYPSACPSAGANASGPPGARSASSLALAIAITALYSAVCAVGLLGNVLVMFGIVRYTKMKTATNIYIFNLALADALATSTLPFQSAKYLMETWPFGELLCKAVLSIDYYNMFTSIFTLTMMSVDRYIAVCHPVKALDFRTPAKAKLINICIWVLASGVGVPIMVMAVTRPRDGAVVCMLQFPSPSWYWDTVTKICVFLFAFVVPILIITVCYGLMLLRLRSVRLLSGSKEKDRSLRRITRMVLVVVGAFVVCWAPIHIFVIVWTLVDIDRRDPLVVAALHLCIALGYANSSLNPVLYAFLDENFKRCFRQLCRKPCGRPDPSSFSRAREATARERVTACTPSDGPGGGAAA
Sequence of Opioid receptors; mu/kappa/delta (Homo sapiens) (P41145 whole entry, looked up): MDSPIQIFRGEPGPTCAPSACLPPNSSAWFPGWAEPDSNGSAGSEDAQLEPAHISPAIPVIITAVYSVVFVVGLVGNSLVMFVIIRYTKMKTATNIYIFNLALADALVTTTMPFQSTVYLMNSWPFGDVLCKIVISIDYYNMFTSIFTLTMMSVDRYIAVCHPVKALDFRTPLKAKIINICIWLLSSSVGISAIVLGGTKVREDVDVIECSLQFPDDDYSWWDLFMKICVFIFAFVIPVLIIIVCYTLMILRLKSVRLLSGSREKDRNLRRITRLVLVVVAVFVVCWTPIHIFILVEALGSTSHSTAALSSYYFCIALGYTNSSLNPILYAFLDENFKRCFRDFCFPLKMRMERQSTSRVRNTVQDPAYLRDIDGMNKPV

Regarding `O=C1CC[C@@]2(O)[C@H]3Cc4ccc(O)c5c4[C@@]2(CCN3CC2CC2)[C@H]1O5`, in the data set with Mus musculus [1], the inhibition entry was “inactive”. Regarding `CN1CC[C@]23CCCC[C@H]2[C@H]1Cc1ccc(O)cc13`, the inhibition entry in data set [2] is “Active”. On to `Cl.Oc1ccc2c3c1O[C@H]1[C@H](N(CCCl)CCCl)CC[C@@]4(O)[C@@H](C2)N(CC2CC2)CC[C@]314`, for which, in the data set on Mus musculus [3], the Activity is 12%. Further, the mortality in data set [4] is 2%.

These data come from ChEMBL document CHEMBL3244199, “6beta-[N,N-Bis(2-chloroethyl)amino]-17-(cyclopropylmethyl)-4,5alpha-epoxy-3,14-dihydroxymorphinan(chlornaltrexamine) a potent opioid receptor alkylating agent with ultralong narcotic antagonist actitivty” (J Med Chem, 1978).
